{
  "source": "patent US12303506B2",
  "about": "“Trabectedin composition” (EXTROVIS AG, priority 2022, dated 2025)",
  "origin": "cited, not measured here",
  "conditions": "background statement",
  "data": [
    {"smiles": "COc1cc2c(cc1O)CCN[C@]21CS[C@@H]2c3c(OC(C)=O)c(C)c4c(c3[C@H](COC1=O)N1[C@@H]2[C@H]2c3c(cc(C)c(OC)c3O)C[C@@H]([C@@H]1O)N2C)OCO4", "note": "[Trabectedin, (1′R,6R,6aR,7R,13S,14S,16R)-5(acetyloxy)-3′,4′,6,6a,7,13,14,16-octahydro-6′,8,14-trihydroxy-7′,9-dimethoxy-4,10,23 trimethylspiro[6,16-(epithiopropanoxymethano)-7,13-imino-12H-1,3dioxolo[7,8]isoquino[3,2b][3]benzazocine-20,1′(2′H)-isoquinolin]-19-one]", "values": [
      {"measurement": "aqueous solubility", "result": "limited aqueous solubility"}
    ]}
  ]
}
